Calls of active or inactive are those of the source. Rule as the data show it: actives have a measured IC50 and inactives only a lower limit.

The assay deals with Envelope glycoprotein gp160 (Human immunodeficiency virus 1, UniProt Q6QLK5). The assay is described as follows: inhibitors of HIV fusion peptide binding, primary screen, biochemical, uHTS, fluorescence dequenching (AID 1986).
Sequence of Envelope glycoprotein gp160 (Q6QLK5 whole entry, the tested form may be a part): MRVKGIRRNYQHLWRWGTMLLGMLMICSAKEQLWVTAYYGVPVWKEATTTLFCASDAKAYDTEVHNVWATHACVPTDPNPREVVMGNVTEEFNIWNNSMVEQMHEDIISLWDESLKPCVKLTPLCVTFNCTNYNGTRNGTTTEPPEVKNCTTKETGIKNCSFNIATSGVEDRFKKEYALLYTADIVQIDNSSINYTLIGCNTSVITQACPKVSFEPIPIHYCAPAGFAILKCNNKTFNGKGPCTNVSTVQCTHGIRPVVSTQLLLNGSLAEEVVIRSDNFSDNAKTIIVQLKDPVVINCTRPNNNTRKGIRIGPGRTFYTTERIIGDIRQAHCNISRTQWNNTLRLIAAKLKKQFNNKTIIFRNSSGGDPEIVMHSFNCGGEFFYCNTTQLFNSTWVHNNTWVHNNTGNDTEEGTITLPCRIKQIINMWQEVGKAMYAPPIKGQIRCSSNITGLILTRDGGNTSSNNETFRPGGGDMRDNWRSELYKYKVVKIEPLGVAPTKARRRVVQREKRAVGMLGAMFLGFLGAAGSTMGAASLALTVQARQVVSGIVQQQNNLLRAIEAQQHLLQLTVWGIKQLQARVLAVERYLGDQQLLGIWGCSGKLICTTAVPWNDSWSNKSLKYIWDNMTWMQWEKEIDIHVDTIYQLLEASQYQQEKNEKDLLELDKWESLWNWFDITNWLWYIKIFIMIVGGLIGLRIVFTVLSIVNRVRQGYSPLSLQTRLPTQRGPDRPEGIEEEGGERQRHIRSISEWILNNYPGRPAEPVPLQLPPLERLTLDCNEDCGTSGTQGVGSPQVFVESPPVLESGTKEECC

Turning to `O=C1Nc2ccc(Br)cc2/C1=C1/SC(=S)N(NS(=O)(=O)c2ccccc2)C1=O`, the half-maximal inhibitory concentration (IC50) (in general, the concentration that inhibits the measured activity by half) was 23.9 µM (active).

For the origin of these results see ChEMBL document CHEMBL1201862, “PubChem BioAssay data set” (2004).
